Test results reported in patent US20070099996A1, “Pharmaceutical compositions of acitretin” (priority 2003, published 2007).

Assays:
[1] = cited from earlier work
[2] = Comparative particle size distribution; assay type: physicochemical
Description: Comparative particle size distribution of unmilled acitretin, air-jet milled acitretin, oil-milled and wet milled solid dispersion of acitretin.

SMILES | Solubility in water [1] | Particle size D10 [2] | Particle size D50 [2] | Particle size D90 [2]
COc1cc(C)c(/C=C/C(C)=C/C=C/C(C)=C/C(=O)O)c(C)c1C [Acitretin] | practically insoluble |  |  | 
COc1cc(C)c(/C=C/C(C)=C/C=C/C(C)=C/C(=O)O)c(C)c1C [Air-jet milled acitretin, acitretin] |  | 2.13 microns | 5.51 microns | 14.48 microns
COc1cc(C)c(/C=C/C(C)=C/C=C/C(C)=C/C(=O)O)c(C)c1C [Unmilled acitretin, acitretin] |  | 11.14 microns | 39.59 microns | 105.0 microns
